The source of these data is patent US9217743B2, “Screening method utilizing thalidomide-targeting factor” (Tokyo Institute of Technology, priority 2009, dated 2015).

The structures appear in SMILES notation. Entries after “also recorded” stand apart in the source; their conditions may differ.

The target of series [1] is T1, CRBN Y384A (Homo sapiens, UniProt Q96SW2, Y384A).
T1 construct: expressed in transfected cells; host or cells: 293T
In words: Binding of CRBN point mutant from 293T extracts to thalidomide-immobilized beads. The text has this: (§1) First, thalidomide-binding region was investigated by using the N-terminal and C-terminal deletion mutants. […] The present inventors investigated whether this CRBN YW/AA functionally active in the cells. The subcellular localization of this mutant was indistinguishable from that of wild-type CRBN.
(§2) Recombinant CRBN-FLAG and DDB1-V5-His proteins were expressed in the insect Sf9 cells by using the Bac-to-bac baculovirus expression system (Invitrogen) and purified using anti-FLAG M2 agarose beads (Sigma) and Ni-NTA agarose beads (Qiagen), respectively. Purified CRBN-FLAG and/or DDB1-V5-His were mixed with thalidomide-immobilized beads, and the bound proteins were eluted with an SDS sample buffer. For analysis of CRBN-deletion mutant, GST-fused CRBN and its mutants were expressed in E. coli BL21 and purified using glutathione Sepharose (GE Healthcare). CRBN mutants were overexpressed in 293T cells by transfection using Lipofectamine 2000 (Invitrogen). Subsequent binding assays were carried out as described above.

In series [2] the target is T2, CRBN W386A (Homo sapiens, UniProt Q96SW2, W386A).
T2 construct: expressed in transfected cells; host or cells: 293T
Described as above.
Text: as §1, §2

Series [3] has as its target T3, zCrbn YW/AA (Danio rerio, UniProt Q68EH9, W376A/Y374A).
T3 construct: expressed in transfected cells; host or cells: 293T
T3 sequence (Q68EH9 1-431 Y374A/W376A): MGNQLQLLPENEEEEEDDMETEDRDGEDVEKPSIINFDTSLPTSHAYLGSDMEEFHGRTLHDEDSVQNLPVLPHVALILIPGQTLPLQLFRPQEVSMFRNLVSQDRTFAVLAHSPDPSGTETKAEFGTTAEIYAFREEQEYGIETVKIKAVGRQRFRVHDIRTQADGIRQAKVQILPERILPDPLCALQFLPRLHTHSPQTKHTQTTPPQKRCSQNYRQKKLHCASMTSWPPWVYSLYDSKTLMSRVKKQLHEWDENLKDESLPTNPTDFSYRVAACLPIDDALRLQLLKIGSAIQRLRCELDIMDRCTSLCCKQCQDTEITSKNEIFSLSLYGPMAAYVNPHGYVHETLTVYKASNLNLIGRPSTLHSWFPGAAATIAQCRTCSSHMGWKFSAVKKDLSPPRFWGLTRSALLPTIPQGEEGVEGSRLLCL
Nature of the series: Binding of FLAG-zCrbn YW/AA from 293T lysate to thalidomide beads. To be noted: FLAG-zCrbn YW/AA in 293T lysate. The arrangement: species or system zebrafish. On the procedure: FIG. 14 relates to biochemical analysis results of zCrbn. […] Bound proteins were eluted by thalidomide, and eluate were analyzed by western blotting. zCrbn bound to thalidomide. (B) Lysate from 293T cells overexpressing FH-zCrbn was immunoprecipitated with anti-FLAG antibody, and DDB1 was detected by western blotting. […] (C) Lysate from FLAG-zCrbn (wild type) or FLAG-zCrbn YW/AA overexpressed in 293T cells was mixed with thalidomide beads. For quantification, various amounts of input and eluate fraction were analyzed by western blotting.
If so, its teratogenicity should be alleviated by expression of functionally active but thalidomide-binding-defective zCrbn. To examine this idea, the present inventors prepared mutants in which Y374 and W376 are substituted with alanine (corresponding to YW/AA in humans, namely Y384A/W386A). The zCrbn YW/AA has extremely low thalidomide-binding activity. In the absence of thalidomide, Overexpression of wild-type zCrbn or zCrbn YW/AA had no discernible effect on fin and otic vesicle development. […] Also thalidomide treatment of embryos overexpressing wild-type zCrbn reduced the size of otic vesicles to approximately 66% of the control size. […] Thalidomide-induced fin degeneration was also rescued by overexpression of zCrbn YW/AA.

Series [4] has as its target T4, DDB1-V5-His (Homo sapiens, UniProt Q16531).
T4 construct: made in house; host or cells: Sf9 insect cells (Bac-to-bac baculovirus)
Nature of the series: In vitro binding assay of purified recombinant protein with thalidomide-immobilized beads.
Text: as §2

Series [5] concerns the target T5, CRBN-FLAG (Homo sapiens, UniProt Q96SW2).
T5 construct: made in house; host or cells: Sf9 insect cells (Bac-to-bac baculovirus)
Described as above.
Text: as §2

Series [6] has as its system DDB1. In words: Elution of DDB1 from thalidomide-immobilized beads by test compound, Western blotting. To be noted: Example 6; 293T extracts; elution with 1 mM compound.
Series [7] concerns shh. In words: Whole-mount in situ hybridization of zebrafish fin buds. Type of series: in vivo. The following applies: thalidomide-treated 48-hpf embryos. The text has this:
(§3) To obtain a clue to the pathway(s) downstream of CRBN and thalidomide, the present inventors analyzed well-known key molecules in fin development. Sonic hedgehog (Shh) is expressed in the zone of polarizing activity (ZPA) and is responsible for anteroposterior patterning of the limb and fin (Cited Literature 27), whereas Fgf8 is expressed in the apical ectodermal ridge (AER) of the limb and fin and is necessary for outgrowth of the limb and fin along the proximodistal axis. […] Thus, an inhibitor of FGF8 production is a possible downstream target of thalidomide and the CRBN-containing E3 complex.
(§4) This assay was carried out in accordance with Cited Literature 41. Antisense probe for zcrbn mRNA was directed against the 5′-coding region of 513 bp. Antisense probe for zcul4a was directed against the 3′ untranslated region (3′ UTR) of 590 bp. Probes for shh and fgf8 were kindly provided by Dr. Krauss and Dr. Thisse, respectively. To increase permeability of probes, fixed embryos were incubated with PBS containing 0.1% Tween-20 and […] proteinase K for two minutes at room temperature.

Series [8] has as its system fgf8a. Described as above. Type of series: in vivo.
Text: as §3, §4

Series [9] addresses T6, DDB1 and CRBN (Homo sapiens, UniProt Q96SW2).
T6 construct: endogenous in cells; host or cells: HeLa
Nature of the series: Affinity purification from HeLa cell extracts with thalidomide-immobilized beads, competition by free thalidomide. Type of series: binding. To be noted: 0.3 mM free thalidomide added to HeLa extracts before the beads. On the procedure: To purify thalidomide-binding proteins, the present inventors performed affinity purification using FG beads, which are magnetic particles (Cited Literature 9). FR259625, a thalidomide derivative in which a carboxyl group is added was covalently immobilized on the FG beads (FIG. 6), and mixed and incubated with human HeLa cell extracts. […] The 127 and 55 kDa proteins were analyzed by mass spectrometry and identified as DDB1 and CRBN, respectively (Table 1). Identities of these proteins were also confirmed by Western blotting (immunoblotting) (FIG. 1A), and further, these proteins were isolated similarly as thalidomide binding protein from extracts of various cell types (FIG. 7). To determine whether this interaction with thalidomide is direct, the present inventors purified recombinant proteins. CRBN-FLAG, but not DDB1-V5-His, bound to thalidomide-immobilized beads (FIG. 1B).

Series [10] addresses T7, CRBN YW/AA (Y384A/W386A) (Homo sapiens, UniProt Q96SW2, W386A/Y384A).
T7 construct: expressed in transfected cells; host or cells: 293T
In words: Binding of CRBN double mutant from 293T extracts to thalidomide-immobilized beads.
Text: as §1, §2

The target of series [11] is CRBN (Homo sapiens, UniProt Q96SW2). In words: Elution of CRBN from thalidomide-immobilized beads by test compound, Western blotting. (In general: In western blotting, separated proteins are transferred to a membrane and probed.)

Turning to `O=C1CCC(N2C(=O)c3ccccc3C2=O)C(=O)N1` (stereo not shown) [thalidomide], in series [1], the “thalidomide binding of CRBN Y384A” value is “defective”. The “thalidomide binding of CRBN W386A” value in [2] is “defective”. In addition, the “thalidomide-binding activity of zCrbn YW/AA” value in [3] is “extremely low; also recorded: obviously weak”. Further, the “binding of thalidomide to recombinant DDB1-V5-His” value in [4] was “indirectly via CRBN”. Besides, the “binding of thalidomide to recombinant CRBN-FLAG” value in series [5] is on record as “directly binds”. Further, in series [6], the “DDB1 in the eluate fraction” value is on record as “detected”. Moreover, the shh expression result in series [7] was “no change”. In addition, the fgf8a expression result was “reduced or absent; also recorded: severely reduced” in series [8] (thalidomide-treated 48-hpf embryos) and “restored” in series [8] (thalidomide-treated embryos injected with zCrbn YW/AA). The “yield of DDB1 and CRBN on the beads” value in series [9] is “reduced significantly”. Further, in [10], the “thalidomide-binding activity of CRBN YW/AA” value was “extremely low”. Besides, the “CRBN eluted from thalidomide-immobilized beads by the compound” value in [11] (293T cell extracts, buffer containing 0.1 to 1 mM compound, one hour, Western blotting) is on record as “eluted”. In addition, the “CRBN in the eluate fraction” value in [11] (Example 6, 293T extracts, elution with 1 mM compound) is “detected”.
